Test results reported in patent US5922681A, “Endothelin antagonists” (Warner-Lambert Company, priority 1992, dated 1999).
Non-standard residues stand in square brackets, D forms with d. Residues, ends and D or L forms follow the SMILES beside them. No end group written: not given here.

Tests used:
[1] = tested on: ETA receptor over the ETB subtype; settings: cited from earlier work
[2] = tested on: endothelin-induced arachidonic acid release in vascular smooth muscle cells (ETA); settings: cited from earlier work
[3] = tested on: endothelin-stimulated constriction in the rabbit femoral renal (ETA), and pulmonary arteries (ETB); settings: cited from earlier work
[4] = molecular target: endothelin receptor (Rat Heart); assay: [125I]-ET-1 receptor binding, Rat Heart
Method: (§1) The compounds of Formula I are valuable antagonists of endothelin. […] Compounds of Formula I were tested for their ability to inhibit [^125 I]-ET-1([^125 I]-Endothelin-1) binding in a receptor assay according to the following procedures Doherty, A. M., et al, J. Cardiovascul. Pharmacol. 17(Suppl 7):S59-61 (1991) and Doherty, A. M., et al, Bio. Org.

[5] = molecular target: endothelin receptor (Human Placenta); assay: [125I]-ET-1 receptor binding, Human Placenta
Method: as §1

[6] = tested on: endothelin-stimulated arachidonic acid release in cultured vascular smooth muscle cells; assay: AAR assay for antagonist activity; type: cell-based, rabbit; settings: ET-1 0.3 nM
Method: AAR Assay for Antagonist Activity
Antagonist activity is measured by the ability of added compounds to reduce endothelin-stimulated arachidonic acid release in cultured vascular smooth muscle cells as arachidonic acid release (AAR). [^3 H] Arachidonic Acid Loading Media (LM) is DME/F12+0.5% FCS×0.25 mCi/mL [^3 H] arachidonic acid (Amersham). Confluent monolayers of cultured rabbit renal artery vascular smooth muscle cells were incubated in 0.5 mL of the LM over 18 hours, at 37° C., in 5% CO2. The LM was aspirated and the cells were washed once with the assay buffer (Hank's BSS+10 mM HEPES+fatty acid-free BSA (1 mg/mL), and incubated for 5 minutes with 1 mL of the prewarmed assay buffer. This solution was aspirated, followed by an additional 1 mL of prewarmed assay buffer, and further incubated for another 5 minutes. A final 5-minute incubation was carried out in a similar manner. […] This solution was then collected, […] of scintillation cocktail was added, and the amount of [^3 H] arachidonic acid was determined in a liquid scintillation counter.

[7] = tested on: ET-1-induced vasoconstriction; settings: isolated porcine coronary arteries; cited from earlier work
ET receptor = settings: cited from earlier work
[8] = tested on: ET-1-induced vasoconstriction; settings: isolated rabbit aorta; cited from earlier work
pressor response to ET-1 = settings: IV bolus 1 mg/kg; cited from earlier work
ET-1-induced arrythmia = settings: rats; cited from earlier work
[9] = tested on: vasoconstriction of the basilar artery; settings: canine subarachnoid hemorrhage, intracisternal 0.1 mg; cited from earlier work
ETB = settings: isolated, endothelium-intact porcine pulmonary arteries; cited from earlier work

Ac-(β-phenyl)D-Phe-L-Leu-L-Asp-L-lle-L-lle-L-Trp trifluoroacetate [PD 142893]
Binding selectivity for the ETA receptor over the ETB subtype [1]: tenfold | Antagonism of endothelin-induced arachidonic acid release [2]: functional antagonist | Antagonism of endothelin-stimulated constriction [3]: antagonizes

C[C@@](Cc1c[nH]c2ccccc12)(NC(=O)OC1C2CC3CC(C2)CC1C3)C(=O)N[C@H](CC(=O)O)Cc1ccccc1 (relative stereo) [Compound 4, [S-(R*,R*)]-β-[[3-(1H-indol-3-yl)-2-methyl-1-oxo-2-[[(tricyclo[3.3.1.1^3,7]dec-2-yloxy)carbonyl]-amino]propyl]amino]benzenebutanoic acid]
IC50 [4]: 47.3 µM | IC50 [5]: 58.3 µM | AAR IC50 (μM) (Antag) % inhib at 10 μM [6]: 62.4%

CC(C)C[C@@H]1NC(=O)[C@@H](C(C)C)NC(=O)[C@@H]2CCCN2C(=O)[C@@H](CC(=O)O)NC(=O)[C@@H](Cc2c[nH]c3ccccc23)NC1=O [BQ-123] (cyclo(L[dW][dD]P[dV]))
Antagonism of ET-1-induced vasoconstriction [7]: antagonize

ET[1-20]: ET-1 lacking the C-terminal amino acid (Trp-21) (CSCSSLMDKECVYFCHLDII; ends and bridges not checked; cysteine pairing not given here; UniProt P05305 53-72, looked up, fragment)
Functional / vasoconstrictor activity, fold less (ET receptor): approximately 1000 fold

FR 139317
pA2, inhibition of ET-1-induced vasoconstriction [8]: 7.2 | Initial depressor response to ET-1 (pressor response to ET-1): no effect | Pressor response to ET-1 (pressor response to ET-1): completely inhibited | ET-1-induced arrythmia (ET-1-induced arrythmia): suppressed | Vasoconstriction of the basilar artery after 7 days [9]: significantly inhibited

ET[1,3,11,15-Ala]: linear ET analog, reported selective ETB agonist (ASASSLMDKEAVYFAHLDIIW; Endothelin-1; UniProt P05305 53-73, looked up, variant C1A C3A C11A C15A)
Vasorelaxation (ETB): caused vasorelaxation

N-acetyl-ET[10-21]: truncated ET analog, reported selective ETB agonist (Ac-ECVYFCHLDIIW; cysteine pairing not given here; UniProt P05305 62-73, looked up, fragment)
Vasorelaxation (ETB): caused vasorelaxation

ET[8-21,11,15-Ala]
Vasorelaxation (ETB): caused vasorelaxation
